What all share (format): cell-based
For one test, the system named is thymulin. Description: Thymulin staining of GH-treated hair follicles.
Test [1] has as its system human anagen VI hair follicles. Description: Hair shaft elongation of organ-cultured hair follicles, assay #1 (culture HF 429). The method, then:
(§1) Human anagen VI hair follicles were isolated from scalp skin obtained from three different individuals undergoing routine face-lift surgery. All experiments were performed according to Helsinki guidelines.
(§2) Hair follicles were isolated as described (Philpott MP et al, Human hair growth in vitro; J Cell Science 1990, 97(Pt 3):463-71). Isolated HFs were maintained in supplemented, serum-free Williams E medium (Biochrom, Cambridge, UK) supplemented with 2 mMol/L L-glutamine (Invitrogen, Paisley, UK), 10 ng/mL hydrocortisone (Sigma-Aldrich, Taufkirchen, Germany), 10 μg/mL insulin (Sigma-Aldrich), and 1% antibiotic/antimycotic mixture (Gibco, Karlsruhe, Germany). Hair follicles were placed in a 24-well plate with 500 μL medium (day 0) and incubated in a CO2-incubator (5% CO2, 37° C.) over night without any treatment. The next day (day 1) medium was exchanged and test substance was added to each well (5 μL of stock solution was added to 495 μL culture medium). The medium or medium with test substance was changed every 48 hours.
(§3) Assay #1 Culture HF429: Hair follicles were grown in the wells of a microtiter plate (3 follicles per well) and treated for 9 days with culture medium and test substance as indicated in FIG. 1. Thereafter, elongation, melanogenesis and hair cycle stage were determined.
(§4) Hair shaft length measurements were performed every second day on individual hair follicles using a binocular microscope with an eyepiece measuring reticule. The length of the follicle was defined as the distance between the base of the bulb and the cut end of the hair fibre (Philpott MP et al, Human hair growth in vitro; J Cell Science 1990, 97(Pt 3):463-71).
(§5) All data were analysed by two-tailed unpaired t-test (SPSS analysis software SPSS Inc., Chicago, USA). For determination of elongation, two outliers at top and bottom end of value range were eliminated; with the measurement of melanogenesis one outlier at both, top and bottom range, was eliminated. Results are given as mean value and standard error of measurement (SEM).

The subject of test [2] is human anagen hair follicles. Description: Ki67/TUNEL staining, percentage of proliferating cells, assay #3. The note with it: for Mean percentage of Ki67-positive cells: after 9 days of culture, Anagen only; for Percentage of proliferating cells compared to the control (in words): nine days, p<0.05. How it is done:
(§6) Assay #3 Culture HF 446: Eight hair follicle cultures (3 follicles/well) were treated with various concentration of test substance as described for 2 days, followed by snap freezing and sectioning of two wells. Six wells were treated up to 9 days, then snap frozen and sectioned. The distribution of test substances and concentrations were as indicted in FIG. 3. The parameter measured after two days was proliferation/apoptosis, and the parameters measured after 9 days were elongation, proportion of cells in proliferation/apoptosis, and hair cycle stage
After nine days, Ki67/TUNEL staining was performed and photos taken.
Proliferating and resting cells as well as cells undergoing apoptosis were counted separately proximal Auber's line. Results are expressed as percentages. For Ki-67/TUNEL staining, fixed sections were incubated for 60 minutes in a solution comprising 30% TdT-enzyme (Chemicon International, Inc., Temecula, Calif., USA; CatNo S1707). 2 mL stop buffer (Chemicon International, Inc.; CatNo S7110), diluted in 68 mL distilled water, was added for 10 minutes to stop the reaction. This was followed by a pre-incubation for 20 minutes with 10% goat serum (Dako Cytomation, CatNo 50114121) and incubation with mouse-anti human Ki-67 antigen (Chemicon International, Inc., CatNo S7110) 1:20 in PBS with 2% goat serum. The fixed section was then washed in PBS, treated with anti-digoxigenin antibody (Chemicon International, Inc., CatNo S7110) (59DI Antibody solution and 5601 Stop solution, 30 minutes) and goat anti-mouse-IgG-rhodamine red (Jackson Immuno Research, Suffolk, UK; CatNo 115-295-062), 1:200 in PBS with 2% goat serum. After washes with PBS, counterstaining with DAPI™ ([…]) (Roche, Basel, Switzerland; CatNo 236276) and further washes with PBS and mounting using Fluoromount (Southern Biotech, Birmingham, Ala., USA; CatNo 0100-01).
After nine days, Ki67/TUNEL staining was performed and photos were taken. In anagen hair follicles, proliferating cells and cells undergoing apoptosis were counted separately proximal Auber's line. Results are expressed as percentages. […] The results are summarized in Table 6 and FIG. 9 showing the mean percentage of Ki6 7 positive cells with SEM

Test [3] concerns human anagen VI hair follicles. Description: Hair shaft elongation of organ-cultured hair follicles, assay #3 (culture HF 446). The note with it: for Rate of hair growth compared with control (in words): p<0.05. How it is done: as §1, §2, §6, §4, §5
In test [4] the test system is human anagen VI hair follicles. Description: Melanogenesis, Fontana Masson staining measured by Image J, assay #1. The note with it: for Mean relative darkening of the groups (measured by image J), Mean: 9 days, dark=small index number, light=high index number. The method, then: as §3
Fontana Masson staining was performed at the end of the culture period and photos taken of snap frozen sections. The photos were analysed (Image J, public domain, developed at the National Institutes of Health, USA) by measuring the density of two squares, consisting of 150×150 dots, placed over the darkest areas on both sides of the dermal papilla. For Fontana-Masson staining, fixed sections were treated in darkness for 40 minutes with a solution containing 10% silver nitrate (Merck & Co., Inc., Whitehouse Station, N.J., USA; CatNo 1.01512.0100), following by a development in solution containing 5% sodium thiosulphate (Merck & Co., Inc.; CatNo 1.06512.2500) for 1 minute and multiple washings in distilled water for 3 minutes. Counterstaining with 0.5% Neutralrot (Chroma Muenster, Germany, CatNo 2E038). Then dehydration in xylol and covering with Eukitt (O. Kindler GmbH, Freiburg, Germany; CatNo E115).
as §5
Micro-dissected anagen VI hair follicles were treated as above described. At the end of the culture period Fontana Masson staining was performed and photos were taken of the snap frozen sections. The pictures were analysed by measuring the darkness (brightness) of two squares, consisting of 150×150 dots, placed over the darkest areas on both sides of the dermal papilla (dark=small index number, light=high index number). The shading of the different groups was compared to each other and the results were analysed using Student's t-test. The results are shown below in Table 5 and FIG. 7.

In the next test the test system is human hair follicles. Description: Hair cycle staging of cultured hair follicles (assays #1, #2, #3). The note with it: after 9 days of treatment, both tested individuals, all concentrations. How it is done: Photodocuments from the Fontana Masson staining were used for hair follicle staging according to previously well-defined morphological criteria (Stenn K S et al, Controls of Hair Follicle Cycling; Physiol Rev 2001, 81:449-494, Müller-Röver S et al, A Comprehensive Guide for the Accurate Classification of Murine Hair Follicles in Distinct Hair Cycle Stages; J Invest Dermatol 2001, 117:3-15). The percentage of hair follicles in anagen, early, mid and late catagen was determined.
Photodocuments from the Fontana Masson staining were used for hair follicle staging according to previously well-defined morphological criteria (Stenn K S et al, Controls of Hair Follicle Cycling; Physiol Rev 2001, 81:449-494, Müller-Röver S et al, A Comprehensive Guide for the Accurate Classification of Murine Hair Follicles in Distinct Hair Cycle Stages; J Invest Dermatol 2001, 117:3-15). The percentage of hair follicles in anagen, early, mid and late catagen was determined in the different assays.

We go through two substances from patent US20110281802A1, “COMPOSITION FOR TREATMENT AND PREVENTION OF HAIR LOSS AND PREMATURE GRAYING OF HAIR” (Immudiagnostik AG, priority 2007, published 2011).

Where no end group is shown, it is not given here.

For the substance “GH: GH, pituitary hormone that stimulates the secretion of thymulin”, the “Staining for thymulin compared with the control group (in words)” value in the test with thymulin is reported as “stained more intensively for thymulin”.

Consider “Thymosin alpha-1 (SDAAVDTSSEITTKDLKEKKEVVEEAEN; ends and bridges not checked; UniProt P06454 2-29, looked up) [TA1, 28aa thymic peptide which modulates lymphocyte differentiation]”, for which the “Mean elongation in percent compared to day 0” value in test [1] (100 ng/mL, Day 0) is 0.00%; in test [1] (100 ng/mL, Day 1), 16.71%; in test [1] (100 ng/mL, Day 3), 34.54%; in test [1] (100 ng/mL, Day 5), 51.14%; in test [1] (100 ng/mL, Day 7) it was 70.11%; in test [1] (100 ng/mL, Day 9), 82.55%. For the same substance, the “Mean elongation in percent compared to day 0” value was found to be 0.00% in test [1] (1000 ng/mL, Day 0); 15.41% in test [1] (1000 ng/mL, Day 1); 34.74% in test [1] (1000 ng/mL, Day 3); 50.66% in test [1] (1000 ng/mL, Day 5); 66.20% in test [1] (1000 ng/mL, Day 7); 75.26% in test [1] (1000 ng/mL, Day 9). Further, the entries for the “Mean percentage of Ki67-positive cells” value in test [2] (100 ng/mL) and in test [2] (1000 ng/mL) were 25.15 percentage and 28.05 percentage, respectively. Further, the “Percentage of proliferating cells compared to the control (in words)” value in test [2] (100 ng/mL) and in test [2] (1000 ng/mL) was “less percentage of cells are proliferating” in each case. In addition, the “Mean elongation in % compared to day 0” value in test [3] (100 ng/mL, Day 0) worked out at 0%; in test [3] (100 ng/mL, Day 1), 6.25%; in test [3] (100 ng/mL, Day 3), 45.55%; in test [3] (100 ng/mL, Day 5) it was 49.52%; in test [3] (100 ng/mL, Day 7), 61.94%; in test [3] (100 ng/mL, Day 9) it was 69.90%. Also, the “Mean elongation in % compared to day 0” value in test [3] (1000 ng/mL, Day 0) is listed as 0%; in test [3] (1000 ng/mL, Day 1), 4.00%; in test [3] (1000 ng/mL, Day 3), 37.95%; in test [3] (1000 ng/mL, Day 5), 51.77%; in test [3] (1000 ng/mL, Day 7), 68.36%; in test [3] (1000 ng/mL, Day 9) it was 73.33%. The “Rate of hair growth compared with control (in words)” value in test [3] (100 ng/mL) and in test [3] (1000 ng/mL) was “significantly lowered rate of hair growth” in each case. The “Mean relative darkening of the groups (measured by image J), Mean” value is on record as 81.01 in test [4] (100 ng/mL) and 71.61 in test [4] (1000 ng/mL). Besides, the “Influence on HF melanogenesis (in words)” value in test [4] (quantitative Masson-Fontana histochemistry) was “did not influence HF melanogenesis”. Also, the “Hair follicles in anagen compared with control (in words)” value in the test with human hair follicles is “more hair follicles in anagen”.
